According to patent US12116421B2, “Peptide-based Dopa containing adhesive gels” (KING ABDULLAH UNIVERSITY OF SCIENCE AND TECHNOLOGY, priority 2020, dated 2024):
Where a SMILES comes first, the peptide text is derived from it. [ ]: non-standard residue; d: D form. Dopa = N[C@@H](Cc1ccc(O)c(O)c1)C(=O)O; Cha = N[C@@H](CC1CCCCC1)C(=O)O

Test system: Acropora hemprichii fragments
Assay: Adhesion of bigger coral fragments with IIZKDo glue to tile and 3D printed coral
Format: in vivo
Text: The donor corals Acropora spp. shown in FIG. 36 were collected from the Red Sea.
In one embodiment, IIZKDo was used for the adhesion of bigger and heavier coral fragments to the 3D printed coral, which would be the situation in coral reef restoration. In gluing larger coral fragments, two different type of Acropora hemprichii were glued: some big fragments with an irregular base, and some smaller pieces with smooth base.
In one embodiment, the big fragments with irregular base and the smaller pieces with smooth base were attached to a tile. The cut small pieces of coral were attached to a special sheet for macrofragmentation so that these fragments further grew on the surface of the spreadsheet, in order to obtain fragments with a base smooth enough to stick them on the tile. After 15 days, the big fragments were still fully attached to the tile, whereas the small, flat fragments were all detached.
After verifying the best performing glue among the three DoIIZK, IIZDoK, IIZKDo, IIZKDo was selected to glue some coral fragments onto 3D printed PLA corals used for coral reef restoration project. Using a diagonal plier, the tip of each branch-like part (ca. 1.5-2.5 cm in length) of a donor Acropora hemprichii coral was gently cut to minimize damage to the coral itself. FIG. 36 illustrates the parts being cut from the donor coral. […] The initial donor coral was moved from a large shallow aquarium (230×148×140 cm) supplied with running seawater to a relatively shallow aquarium also outfitted with running seawater. While preparing the glue, the cut fragments were kept in a small shallow aquarium (72×54×29 cm) filled with sea water to not harm them until use. In the meantime, the glue was prepared by mixing IIZKDo 40 mg/mL in water and the mixture was poured on a glass slide and allowed to rest for about 5 minutes to equilibrate, as shown in FIG. 42. The cut coral fragment was removed from the aquarium, and cleaned, while moisture was allowed to absorb from the cut section with sterilized filter paper. The ceramic tile was cleaned twice with water, and then sea water to mimic the adhesion of the glue to a wet, salty surface.
A few drops of IIZKDo was applied at the surface of the cut section of the coral fragment, and the fragment was immediately glued at the surface of the tile, as shown in FIG. 43. As a control, some smaller fragments with smooth surface Acropora hemprichii, were glued using the same peptide-based glue.
The tile with attached coral fragments was placed in the original shallow aquarium (230×148×140 cm) to keep the coral in its natural environment as shown in FIG. 44 and checked after 3 days. Only the big fragments were still sticking on the tile. Therefore, only big fragments were then glued to the 3D printed poly-lactic acid (PLA) printed coral structure primed with MakerBot, which is a 3D printer based on fused deposition modeling method and grew in harsher conditions, such as in the presence of algae etc.

[1] = Big fragments with irregular base, n = 5, tile
[2] = Flat fragments with smooth base, n = 3, tile

CC[C@H](C)[C@H](NC(C)=O)C(=O)N[C@H](C(=O)N[C@@H](CC1CCCCC1)C(=O)N[C@@H](CCCCN)C(=O)N[C@@H](Cc1ccc(O)c(O)c1)C(N)=O)[C@@H](C)CC [IIZKDo, Ac-Ile-Ile-Cha-Lys-Dopa-NH2] (Ac-II[Cha]K[Dopa]-NH2)
Survival after 15 days in the aquarium [1]: 5 | Survival after attachment [1]: 5 | Survival after 15 days in the aquarium [2]: 0 | Survival after attachment [2]: 3 | time coral fragments kept glued to a 3D printed substrate (seawater): several months
